Structures are written as SMILES.

This is an account of results in paper PMC4020785 (PLoS ONE, 2014).

Data set [1] has as its system HIV-1 clone NL4.3 (subtype B). As to the kind of experiment: HIV-1 NL4.3 (subtype B) infection of MT-4 cells, Cell Titer Blue readout. The class given is cell-based. How it is done: (§1) Human PMBCs were incubated with 100 U recombinant IL-2 (Sigma-Aldrich) and 5 µg/mL phytohemagglutinin-P (PHA-P) (Difco) for 5 days at 37°C. MT-4 cells (1×10^6) or treated PBMCs (1.2×10^8) were infected with HIV-1 clone NL-4.3 or ZM247Fv-1 (MOI of 0.001) by spinoculation (1200 g at room temperature for 2 h). Uninfected cells were used as negative control and were also subjected to the spinoculation process. After spinoculation, supernatants were discarded and cells were resuspended in 10 mL of R10. Cells from each condition were then added to wells (96-well plate) containing serial dilutions of each ISD. For MT-4 cells, each dilution was done in sextuplicates and, for PBMCs, in triplicates. Cells were also incubated with different concentrations of ZDV as positive control. After 5 days in culture, Cell Titer Blue was added to each well and cells were incubated for additional 24 h. The median effective concentration for each drug is defined as EC50. In parallel with the infectivity assay, the same cell types were treated with different concentrations of drugs to determine their cytotoxicity, following the protocol described above. Drug concentration that results in a 50% decrease in viable cells is defined as the CC50 for each compound. EC50 was calculated according to Spearman-Karber and therapeutic index was defined by the ratio between CC50 and EC50 [55].
(§2) All statistical analyses were performed using program GraphPism version 6.0. Titrations for TCID50 infectivity were calculated by the Spearman-Karber method. Dose response curves to ISDs with HIV-1 subtype B and C were done using non-linear regression and were fit to the Hill equation.
A general note: The colour change of resazurin is a common sign of viable cells or microbes.

The subject of data set [2] is HIV-1 clone ZM247Fv-1 (subtype C). The data set is described as follows: HIV-1 ZM247Fv-1 (subtype C) infection of human PBMCs, Cell Titer Blue readout. The class given is cell-based. How it is done:
as §1, §2

Data set [3] can be described thus: Cytotoxicity (CC50) in MT-4 cells. The class given is cell-based. The conditions noted are these: human, Subtype B (X4). The method, then: (§3) Cytotoxicity of ISDs was evaluated in J-Lat (clones 9.2 and 10.6) and PHA-activated human PBMCs. Cells were added to wells in a 96-well plate in the presence of various concentrations of ISDs, PMA or prostratin in sextuplicates for 24 and 72 h. Cell viability was determined using the CellTiter-blue fluorescence Cell Viability Assay (Promega) following the manufacturer's instruction.
as §1

For data set [4], the system named is HIV LTR in J-Lat clones. The data set is described as follows: LTR-driven GFP expression in J-Lat clones. The class given is cell-based, HIV-1. The method, then: J-Lat cells are Jurkat cells stably transfected by an HIV genome whose nef sequence was replaced by the GFP gene. Also, a frameshift mutation was introduced to the env gene to prevent virus spread. […] To test the ISDs, a million cells of each clone were treated with different concentrations of each compound (ING-A, ING-B, ING-C, prostratin and PMA) at 37°C. TNF-α (10 ng/mL) was used as a positive control. After 48 h, cells were collected, washed with saline solution (PBS) and GFP expression was evaluated in a FACScalibur cytometer (BD Biosciences). Data were analyzed with Cell Quest Pro software (BD Biosciences).

Data set [5] concerns J1.1 cells. The data set is described as follows: gag p24 production in J1.1 cells (ELISA). The class given is cell-based, HIV-1. The settings on record: 1 µM, 48 h. The method, then: ACH-2 and J1.1 are clonal cell lines derived from CEM [52] and Jurkat cells, respectively, after infection with HIV-1. U1 cells were derived from the human promonocyte cell line U937 and chronically infected with HIV-1 [54]. Each cell line (1×10^6 cells) was incubated in the presence of 1 µM of diterpenes (ING-A, ING-B, ING-C, prostratin and PMA) or 10 ng/mL TNF-α for 48 h at 37°C. After incubation, cells were centrifuged and supernatants were collected for the quantitation of gag p24 antigen by ELISA, following the protocol described by the manufacturer (Perkin Elmer).
For orientation: In an ELISA, binding on a coated surface is turned into a signal by an enzyme label.

For data set [6], the system named is human PBMCs. The data set is described as follows: Cytotoxicity in human PBMCs at 24 and 72 h. The class given is cell-based. The method, then: as §3
In data set [7] the test system is HIV-1 NL4.3-Luc. As to the kind of experiment: Luciferase expression in CD4+ T cells pre-treated and infected with NL4.3-Luc. The class given is cell-based. The conditions noted are these: cells pre-treated 24 h, infected with NL4.3-Luc MOI 0.1. The method, then:
CD4+ T cells were isolated by negative selection from human PBMCs (2.5×10^8 cells) using magnetic beads (Miltenyi) and incubated with 5 µg/mL PHA-P and 100 U IL-2 for 5 days. Cells were then seeded in 6-well plates (10^6 cells per well) and treated with different concentrations of ING-B. After 24 h, cells were infected with HIV-1 NL-Luc (MOI of 0.1) by spinoculation. Infected cells were kept at 37°C for 24 h and then collected for luciferase activity evaluation as described above.

Data set [8] has as its system human PBMCs. The data set is described as follows: Cellular proliferation assay (CFSE) in human PBMCs. The class given is cell-based. The settings on record: CFSE-stained human PBMC, 1, 5 or 10 µM, 8 days. The method, then:
Human PBMCs were stained with CFSE following manufacturer's instructions (Sigma-Aldrich). After staining, cells were washed twice in PBS and incubated with ING-B (1, 5 or 10 µM), 5 µg/mL PHA-P plus 10 U/mL IL-2 (as positive control), or DMSO 1% (as negative control). Cell proliferation was assessed for 8 days after stimulation, and relative proliferation index was calculated for all conditions.

Data set [9] has as its system MT-4 cells. As to the kind of experiment: Cell cycle analysis (propidium iodide) in MT-4 cells. The class given is cell-based. The settings on record: 48 h. The method, then:
Human PBMCs and MT-4 cells were incubated at 37°C with different concentrations of ING-B for 48 h. After incubation, cells were collected, washed twice with PBS, and stained with 200 µl of propidium iodide (50 µg/mL, diluted in Hanks buffer with 1 mg/mL RNAse and 0.2% Triton X-100) for 15 min on ice before cytometry analysis.

On the set-up of data set [10]: method as in personal communication from Bioqual – Rockville, USA. The conditions noted are these: Rhesus macaques, orally treated at similar dose; ref personal communication from Bioqual – Rockville, USA; cited from earlier work.

Take `CCCCCC(=O)O[C@H]1C(C)=C[C@]23C(=O)[C@@H](C=C(CO)[C@@H](O)[C@]12O)[C@H]1[C@@H](C[C@H]3C)C1(C)C` [ING-B, ingenol-3-hexanoate]: the EC50 – broadly, the concentration needed to bring the measured effect to its halfway point – in [1] (Human immunodeficiency virus 1, MT4) stood at 22 nM; in data set [2] (Human immunodeficiency virus 1, PBMC), 47 nM. The “TI (CC50/EC50)” value amounted to 1272 in data set [1] (MT-4 cells, Subtype B (X4)) and 851 in data set [2] (Human PBMC, Subtype C (R5)). In addition, the CC50 (usually the concentration at which the toxic effect on the cells reaches its halfway point) at 5 days in [3] turned out to be 28 µM. The “GFP induction compared with other compounds” value in data set [4] (J-Lat clone 10.6, 48 h) was “slightly more active than ING-A, ING-C and prostratin”. Moreover, in data set [4] (J-Lat clones 9.2 and 10.6, 48 h, all concentrations tested), the “levels of GFP expression, rank order” value is given as “PMA = ING-B > ING-A = ING-C > prostratin”. For the same compound, in data set [5], the “p24 production (in words)” value was “as much p24 production as PMA and TNF-α, and twice as much as prostratin”. For the same compound, in data set [6], the cytotoxicity entry was “less cytotoxic after 72 h of treatment”. The “levels of HIV-driven luciferase” value in data set [7] is on record as “dramatically reduced”. In addition, in data set [8], the cell proliferation result is “no evidence that ING-B caused cell proliferation”. In addition, the cell cycle phases result in data set [9] was “did not alter cell cycle phases”. Moreover, the side effects entry in data set [10] was “negligible side effects”.
